Experimental data: patent US20230241071A1, “COMBINATION TREATMENT OF LIVER DISORDERS” (Terns Pharmaceuticals, Inc., priority 2021, published 2023)

What was measured:
[1] = Pharmacokinetic evaluation in SD rats; assay type: in vivo, rat; conditions: 2.0 mg/kg intragastric
Protocol: Drug Preparation: a certain amount of the drug was taken and added into a 2% Klucel LF+0.1% Tween 80 aqueous solution, to prepare a clear solution or a uniform suspension.
Dosage: SD rats were fasted overnight and given the drug by intragastric infusion at an administrated dose of 2 mg/kg and an administrated volume of 10 mL/kg each.
Operation: rats were dosed by intragastric infusion with the compounds. […] The heparinized sample tubes were then stored at −20° C., and the rats were allowed to eat food 2 h after the dosage.
Determination of contents of the compounds to be tested in the plasma of rats after intragastric infusion of the drugs at different concentrations: the plasma samples were thawed at room temperature, 50 μL each was taken and added into 130 μL of an internal standard working solution (1000 ng/mL, acetonitrile, tolbutamide), and the mixture was whirled for about 1 min and then centrifugated at 4° C. and 13000 rpm for 10 min. 50 μL of the supernatant was taken and mixed with 100 μL of 50% acetonitrile water, and then introduced for LC/MS/MS analysis.

[2] = Mouse NASH model (high fat diet + CCl4), Compound 2; assay type: in vivo; conditions: C57BL/6J, in vivo, oral; mouse model of NASH; read-out: threshold AUC achieving significant histological improvement
Protocol: (§1) C57BL/6J mice were fed a high fat diet for 10 weeks to induce obesity (>38 g BW). Obese mice were injected intraperitoneally (i.p.) twice a week for four weeks with 0.5 μl/g 25% CCl4 (formulated in olive oil) to induce fibrosis, and one group of normal BW mice were injected i.p. twice a week for four weeks with olive oil to serve as a healthy control. During the same dosing period, obese mice were fed orally once a day for 28 days with vehicle or varying doses of Compound 2. On CCl4 dosing days, CCl4 was administered at 4 hours post compound or vehicle dosing. On day 27, all animals were fasted for about 16 hours before terminal euthanasia. On day 28, all animals were sacrificed and various biological parameters were analyzed. Total body, liver, heart and brain weight were measured and changes in liver and heart weight were normalized using brain weight.
(§2) Liver samples were collected for whole transcriptome analysis by RNA sequencing (RNAseq). RNAseq library (n=5 per group) preparation and sequencing was performed using Illumina standard protocols. Alignment of sequencing reads was performed using STAR aligner software and read counts were estimated using RSEM. Differentially expressed genes (compared to vehicle-treated NASH control mice) were determined using EdgeR software. Gene ontology analysis was performed using Advaita software with fold-change and adjusted p-value cutoffs of >1.5 and <0.05, respectively. Gene ontologies were derived from the Gene Ontology Consortium database (2019 Apr. 26) (Ashburner et al., Gene ontology: Tool for the unification of biology. Nature Genetics 25(1): 25-9 (2000); Gene Ontology Consortium, Creating the Gene Ontology Resource: Design and Implementation. Genome Research 11: 1425-1433 (2001)).

mouse NASH model = assay: as above; assay type: in vivo
Protocol: as §1, §2

Approximate pKa = assay type: physicochemical
[3] = Capsule pharmacokinetics in beagle dogs; assay type: in vivo, dog
Protocol: To determine the effect of the solubilizer on the uptake of compound 2, 50 mg (based on free acid) Compound 2 was formulated in a capsule with or without 5 wt % SLS (see Table 10) and was administered to fasted beagle dogs pre-treated with pentagastrin (6 μg/kg, administered by intramuscular injection 30±2 minutes prior to administration of compound 2). The plasma concentration of compound 2 was measured over 24 hours (see FIG. 9).
To determine the pH effect on PK performance, beagle dogs were divided into two groups (n=3 per group). For group 1, dogs were pre-treated with pentagastrin (6 μg/kg, intramuscular injection 30±2 minutes prior to administration of compound 2). For group 2, dogs were pre-treated with famotidine (2 tablets, 20 mg/tablet, oral administration 180±10 minutes prior to administration of compound 2). Compound 2 (10 mg capsule, 5% SLS) was administered, and plasma concentrations of compound 2 were monitored for 24 h and are depicted in FIG. 10. […] To determine the food effect on PK performance, beagle dogs were divided into two groups (n=3 per group). For the fasted group, dogs were fasted overnight through 4-hours post dosing. For the fed group, dogs were fed high fat food 30 minutes prior to administration. Plasma concentrations of compound 2 were monitored for 24 h. Compound 2 (10 mg capsule, 5% SLS) was administered, and plasma concentrations of compound 2 were monitored for 24 h and are depicted in FIG. 11.

VAP-1 = target: T1, VAP-1 (Homo sapiens, UniProt Q16853); assay: Compound 1 10 mg QD for 12 weeks in adults with non-cirrhotic NASH phenotype; assay type: in vivo
T1 construct: from tissue; host or cells: plasma of trial patients
T1 sequence (Q16853 29-763 limits assumed): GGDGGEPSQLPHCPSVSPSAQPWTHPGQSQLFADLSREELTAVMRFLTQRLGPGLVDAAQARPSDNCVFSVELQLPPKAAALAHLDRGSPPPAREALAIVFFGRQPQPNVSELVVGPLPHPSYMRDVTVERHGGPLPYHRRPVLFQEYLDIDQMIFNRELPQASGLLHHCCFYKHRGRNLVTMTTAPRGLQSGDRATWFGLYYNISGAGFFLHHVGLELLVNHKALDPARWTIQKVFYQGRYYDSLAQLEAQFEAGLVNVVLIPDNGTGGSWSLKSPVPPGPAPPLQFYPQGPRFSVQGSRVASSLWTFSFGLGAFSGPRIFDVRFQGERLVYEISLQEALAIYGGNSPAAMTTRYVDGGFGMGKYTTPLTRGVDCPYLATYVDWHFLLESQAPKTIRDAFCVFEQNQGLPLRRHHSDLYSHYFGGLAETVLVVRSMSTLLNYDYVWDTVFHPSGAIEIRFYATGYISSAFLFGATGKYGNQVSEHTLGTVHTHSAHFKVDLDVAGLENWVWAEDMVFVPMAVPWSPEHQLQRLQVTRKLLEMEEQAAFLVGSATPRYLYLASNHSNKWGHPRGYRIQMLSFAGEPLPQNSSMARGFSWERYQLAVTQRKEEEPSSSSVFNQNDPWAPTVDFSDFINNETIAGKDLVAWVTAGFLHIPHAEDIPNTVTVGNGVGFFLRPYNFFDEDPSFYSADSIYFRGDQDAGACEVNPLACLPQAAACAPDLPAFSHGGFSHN
Protocol: Part 1 interim analysis primary endpoint was safety assessed by adverse events (AEs) and laboratory tests; percent change from baseline (BL) in plasma VAP-1 activity was a secondary endpoint. Exploratory imaging and blood-based biomarkers of liver inflammation and fibrosis were also assessed. Analyses of change (or percent change) from baseline used an ANCOVA model with change (or percent change) from baseline as the dependent variable including treatment group and randomization strata as fixed effects and baseline as a covariate.

P-glycoprotein (P-gp) = P-glycoprotein (P-gp) (Homo sapiens, UniProt P08183); assay type: in vitro ADME
[4] = oral QD 28 days, all doses tested

Chain of P-glycoprotein (P-gp) (P08183 whole entry): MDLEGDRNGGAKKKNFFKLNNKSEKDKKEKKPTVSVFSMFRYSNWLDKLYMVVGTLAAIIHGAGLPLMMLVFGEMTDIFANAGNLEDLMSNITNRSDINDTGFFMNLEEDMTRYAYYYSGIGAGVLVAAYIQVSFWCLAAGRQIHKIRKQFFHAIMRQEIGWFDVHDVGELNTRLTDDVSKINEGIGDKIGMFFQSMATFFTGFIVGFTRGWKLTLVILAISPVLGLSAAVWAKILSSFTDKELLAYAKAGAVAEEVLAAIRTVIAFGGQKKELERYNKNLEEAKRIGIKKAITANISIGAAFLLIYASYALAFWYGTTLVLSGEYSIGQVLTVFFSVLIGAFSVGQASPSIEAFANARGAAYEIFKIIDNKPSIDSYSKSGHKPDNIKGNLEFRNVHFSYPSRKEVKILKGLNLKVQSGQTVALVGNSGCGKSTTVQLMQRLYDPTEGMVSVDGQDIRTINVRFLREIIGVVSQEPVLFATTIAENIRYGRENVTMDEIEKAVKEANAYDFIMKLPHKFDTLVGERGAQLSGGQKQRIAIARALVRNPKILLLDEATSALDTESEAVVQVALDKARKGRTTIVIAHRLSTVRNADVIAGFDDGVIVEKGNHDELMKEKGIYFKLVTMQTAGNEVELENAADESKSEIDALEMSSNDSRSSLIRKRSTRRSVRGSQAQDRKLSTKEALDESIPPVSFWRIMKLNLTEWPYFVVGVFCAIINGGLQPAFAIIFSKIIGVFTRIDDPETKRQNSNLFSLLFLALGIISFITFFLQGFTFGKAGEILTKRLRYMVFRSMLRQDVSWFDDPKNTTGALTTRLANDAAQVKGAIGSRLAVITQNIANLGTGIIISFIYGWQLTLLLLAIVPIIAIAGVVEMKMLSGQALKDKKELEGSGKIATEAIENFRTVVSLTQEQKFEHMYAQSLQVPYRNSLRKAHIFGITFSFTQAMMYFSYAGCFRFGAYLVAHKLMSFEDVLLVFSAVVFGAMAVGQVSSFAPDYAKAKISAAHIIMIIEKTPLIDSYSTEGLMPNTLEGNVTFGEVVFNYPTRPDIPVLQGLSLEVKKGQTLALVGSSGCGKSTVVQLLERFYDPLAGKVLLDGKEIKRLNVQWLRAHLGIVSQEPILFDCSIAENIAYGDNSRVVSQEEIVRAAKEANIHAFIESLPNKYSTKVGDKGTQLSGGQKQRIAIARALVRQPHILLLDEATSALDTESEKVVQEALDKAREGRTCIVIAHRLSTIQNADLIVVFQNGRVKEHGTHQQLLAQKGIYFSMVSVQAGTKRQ

N#Cc1nn(-c2cc(Cl)c(Oc3n[nH]c(=O)c4ccccc34)c(Cl)c2)c(=O)[nH]c1=O [Compound 2, 2-(3,5-dichloro-4-((4-oxo-3,4-dihydrophthalazin-1-yl)oxy)phenyl)-3,5-dioxo-2,3,4,5-tetrahydro-1,2,4-triazine-6-carbonitrile]
Curve area [1]: 24790 ± 3704 ng·h/mL
Peak blood drug concentration [1]: 2007 ± 106 ng/mL
Time to peak [1]: 4.67 ± 1.15 h
half-life ([1]; male, rat, plasma, po): 274 ± 25.2 min
AUC [2]: 3320 ng·h/mL
expression of genes associated with collagen extracellular matrix and hepatic stellate cell activation (mouse NASH model; liver RNAseq vs NASH control mice): reducing their expression levels
liver inflammation (histology) (mouse NASH model; oral QD 28 days): trend in inflammation reduction
liver/brain weight (mouse NASH model; oral QD 28 days): significantly reduced
total body weight or heart/brain weight (mouse NASH model; oral QD 28 days): no effect
liver fibrosis (histology) (mouse NASH model; oral QD 28 days, 3 and 10 mpk): significantly reduced
liver steatosis (histology) (mouse NASH model; [4]): significantly reduced
serum total cholesterol, triglycerides and ALT (mouse NASH model; [4]): significantly reduced
pKa (Approximate pKa): ~4.12
food effect on PK performance ([3]; 10 mg capsule, 5% SLS, fasted vs high fat food): delayed Compound 2 Tmax but did not have an impact on the plasma exposure
pH effect on PK performance ([3]; 10 mg capsule, 5% SLS, pentagastrin vs famotidine pre-treatment): Minimal pH effect
increase of exposure (Cmax, AUC) by formulation with 5 wt % SLS ([3]; 50 mg capsule with vs without 5 wt % SLS, fasted beagle dogs): more than 70%

COC1CCN(c2ncc(OC/C(=C/F)CN)cn2)CC1 [Compound 1, (E)-3-fluoro-2-(((2-(4-methoxypiperidin-1-yl)pyrimidin-5-yl)oxy)methyl)prop-2-en-1-amine]
change from BL in cT1, liver fat fraction, liver enzymes, or cytokeratin-18 vs placebo (VAP-1; 10 mg QD 12 weeks): no statistically significant differences
safety and tolerability (VAP-1; 10 mg QD 12 weeks): well-tolerated with a safety profile similar to placebo
inhibition at 10 mg (VAP-1; 10 mg QD, most subjects, by week 2, sustained through week 12, read-out: inhibition of plasma VAP-1 activity): > 98%

Cn1cc(C(=O)O)c2ccc(N3CCC(OCc4c(-c5c(Cl)cccc5Cl)noc4C4CC4)CC3)cc21 [Compound 3]
IC50 (P-glycoprotein (P-gp)): 3.92 µM
